Tests used:
[1] = molecular target: T1, Bombesin receptor subtype-3 (Homo sapiens, UniProt P32247); experiment: Agonist activity at human BRS-3 expressed in HEK293 cells coexpressing AEQ over 10 mins by aequorin bioluminescence assay; assay type: functional, cell-based
T1 sequence (P32247 whole entry): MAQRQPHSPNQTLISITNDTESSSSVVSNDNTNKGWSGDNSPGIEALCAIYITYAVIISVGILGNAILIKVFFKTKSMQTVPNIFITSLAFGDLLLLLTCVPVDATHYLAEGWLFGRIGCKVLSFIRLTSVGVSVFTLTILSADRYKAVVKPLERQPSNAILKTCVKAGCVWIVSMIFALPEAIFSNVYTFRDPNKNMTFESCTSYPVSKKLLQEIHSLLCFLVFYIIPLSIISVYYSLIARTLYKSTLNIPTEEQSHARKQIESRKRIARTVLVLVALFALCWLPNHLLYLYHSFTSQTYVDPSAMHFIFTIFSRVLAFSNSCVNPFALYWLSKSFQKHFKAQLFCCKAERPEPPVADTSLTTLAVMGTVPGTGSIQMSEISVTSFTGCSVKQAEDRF

[2] = Drug level in rat plasma at 1 mg/kg, iv after 1 hr; assay type: ADME, organism-based; set-up: dose 1 mg/kg, route intravenous
[3] = Ratio of drug level in rat brain to plasma at 1 mg/kg, iv after 1 hr; assay type: ADME, organism-based; set-up: dose 1 mg/kg, route intravenous
[4] = Drug level in rat brain at 1 mg/kg, iv after 1 hr; assay type: ADME, organism-based; set-up: dose 1 mg/kg, route intravenous; details: read-out: Drug uptake
[5] = molecular target: T1, Bombesin receptor subtype-3; experiment: Agonist activity at human BRS-3 expressed in HEK293 cells coexpressing AEQ over 10 mins by aequorin bioluminescence assay relative to D-Tyr6-betaAla11-Phe13-Nle14-bombesin; assay type: functional, cell-based
[6] = molecular target: T2, Bombesin receptor subtype-3 (Mus musculus, UniProt O54798); experiment: Agonist activity at mouse BRS-3 expressed in HEK293 cells coexpressing AEQ over 10 mins by aequorin bioluminescence assay; assay type: functional, cell-based
T2 sequence (O54798 whole entry): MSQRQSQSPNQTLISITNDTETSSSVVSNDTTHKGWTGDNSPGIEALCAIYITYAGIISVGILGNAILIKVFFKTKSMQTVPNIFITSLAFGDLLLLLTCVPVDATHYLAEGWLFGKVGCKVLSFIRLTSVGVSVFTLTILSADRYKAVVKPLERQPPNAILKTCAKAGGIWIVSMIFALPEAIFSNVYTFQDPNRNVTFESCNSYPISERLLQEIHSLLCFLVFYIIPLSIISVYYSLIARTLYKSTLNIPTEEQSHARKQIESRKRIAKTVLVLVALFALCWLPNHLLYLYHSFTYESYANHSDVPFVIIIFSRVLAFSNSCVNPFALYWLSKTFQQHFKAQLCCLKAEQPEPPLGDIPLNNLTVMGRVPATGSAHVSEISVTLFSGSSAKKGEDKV

[7] = molecular target: T2, Bombesin receptor subtype-3; experiment: Agonist activity at mouse BRS-3 expressed in HEK293 cells coexpressing AEQ over 10 mins by aequorin bioluminescence assay relative to D-Tyr6-betaAla11-Phe13-Nle14-bombesin; assay type: functional, cell-based
[8] = molecular target: T1, Bombesin receptor subtype-3; experiment: biochemical; assay type: cell-based, CHO
Description: Displacement of [125I]D-Tyr6-betaAla11-Phe13-Nle14-bombesin from human BRS-3 expressed in NFAT-CHO cells after 2 hrs by scintillation counting

CCC(C)(C)Cc1cnc(CCc2ccc(-c3cnsc3)cc2)[nH]1
EC50 [1]: 44 nM
concentration at 1 h [2]: 540 nM
Kp at 1 h [3]: 0.42
concentration at 1 h [4]: 230 nM
Emax [5]: 100%
EC50 [6]: 6.9 nM
Emax [7]: 119%
IC50 [8]: 10 nM

O=C(O)c1cc(F)c(F)cc1-c1ccc(CCc2nc(CC3CCCCC3)c[nH]2)cc1
EC50 [1]: 63 nM
Emax [5]: 103%
EC50 [6]: 4.7 nM
Emax [7]: 96%
IC50 [8]: 36 nM

CCC(C)(C)Cc1cnc(CCc2ccc(-c3cccnc3)cc2)[nH]1
EC50 [1]: 131 nM
Emax [5]: 98%
EC50 [6]: 4.3 nM
Emax [7]: 97%
IC50 [8]: 7.5 nM

CCC(C)(C)Cc1cnc(CCc2ccc(-n3cncn3)cc2)[nH]1
EC50 [1]: 570 nM
concentration at 1 h [2]: 200 nM
Kp at 1 h [3]: 0.4
concentration at 1 h [4]: 80 nM
Emax [5]: 89%
EC50 [6]: 12 nM
Emax [7]: 121%
IC50 [8]: 340 nM

CCC(C)(C)Cc1cnc(CCc2ccc(-c3ccc(F)cn3)cc2)[nH]1
EC50 [1]: 66 nM
Emax [5]: 97%
EC50 [6]: 16 nM
Emax [7]: 105%
IC50 [8]: 19 nM

CCC(C)(C)Cc1cnc(CCc2ccc(-n3ccnn3)cc2)[nH]1
EC50 [1]: 641 nM
Emax [5]: 93%
EC50 [6]: 57 nM
Emax [7]: 111%
IC50 [8]: 390 nM

CCC(C)(C)Cc1cnc(CCc2ccc(-c3cccnc3C(=O)O)cc2)[nH]1
EC50 [1]: 1260 nM
Emax [5]: 95%
EC50 [6]: 14 nM
Emax [7]: 97%
IC50 [8]: 560 nM

CCC(C)(C)Cc1cnc(CCc2ccc(-c3cccc(C#N)n3)cc2)[nH]1
EC50 [1]: 193 nM
Emax [5]: 95%
EC50 [6]: 26 nM
Emax [7]: 115%
IC50 [8]: 140 nM

CCC(C)(C)Cc1c[nH]c(CCc2ccc(-c3cnccn3)cc2)n1
EC50 [1]: 431 nM
Emax [5]: 100%
EC50 [6]: 11 nM
Emax [7]: 107%
IC50 [8]: 51 nM

c1ccc(-c2ccc(CCc3nc(CC4CCCC4)c[nH]3)cc2)nc1
EC50 [1]: 425 nM
concentration at 1 h [2]: 39 nM
Kp at 1 h [3]: 0.77
concentration at 1 h [4]: 30 nM
Emax [5]: 98%
EC50 [6]: 22 nM
Emax [7]: 103%
IC50 [8]: 177 nM

CCC(C)(C)Cc1cnc(CCc2ccc(-c3ccncc3)cc2)[nH]1
EC50 [1]: 305 nM
Emax [5]: 95%
EC50 [6]: 15 nM
Emax [7]: 103%
IC50 [8]: 101 nM

CCC(C)(C)Cc1c[nH]c(CCc2ccc(-c3ccns3)cc2)n1
EC50 [1]: 63 nM
Emax [5]: 102%
EC50 [6]: 3.1 nM
Emax [7]: 103%
IC50 [8]: 11 nM

CCC(C)(C)Cc1c[nH]c(CCc2ccc(-c3cccc(O)n3)cc2)n1
EC50 [1]: 169 nM
Emax [5]: 100%
EC50 [6]: 11 nM
Emax [7]: 91%
IC50 [8]: 51 nM

CCC(C)(C)Cc1c[nH]c(CCc2ccc(-n3cccn3)cc2)n1
EC50 [1]: 135 nM
concentration at 1 h [2]: 30 nM
Kp at 1 h [3]: 0.67
concentration at 1 h [4]: 20 nM
Emax [5]: 106%
EC50 [6]: 9 nM
Emax [7]: 113%

CCC(C)(C)Cc1c[nH]c(CCc2ccc(-c3cccc(N)n3)cc2)n1
EC50 [1]: 37 nM
Emax [5]: 97%
EC50 [6]: 3.9 nM
Emax [7]: 119%
IC50 [8]: 7.3 nM

CCC(C)(C)Cc1c[nH]c(CCc2ccc(-n3ncnn3)cc2)n1
EC50 [1]: 422 nM
Emax [5]: 89%
EC50 [6]: 25 nM
Emax [7]: 99%
IC50 [8]: 205 nM

CCC(C)(C)Cc1cnc(CCc2ccc(-c3csnn3)cc2)[nH]1
EC50 [1]: 538 nM
Emax [5]: 104%
EC50 [6]: 11 nM
Emax [7]: 109%
IC50 [8]: 45 nM

CCC(C)(C)Cc1c[nH]c(CCc2ccc(-c3cccc(C)n3)cc2)n1
EC50 [1]: 105 nM
Emax [5]: 102%
EC50 [6]: 19 nM
Emax [7]: 106%

CCC(C)(C)Cc1c[nH]c(CCc2ccc(-c3ccccc3C(=O)O)cc2)n1
Emax [5]: 101%
Emax [7]: 94%
IC50 [8]: 11 nM

CCC(C)(C)Cc1cnc(CCc2ccc(N3CCCCC3)cc2)[nH]1
EC50 [1]: 171 nM
Emax [5]: 108%
EC50 [6]: 28 nM
Emax [7]: 133%
IC50 [8]: 28 nM

CCC(C)(C)Cc1c[nH]c(CCc2ccc(-c3cccc(C(=O)O)n3)cc2)n1
EC50 [1]: 5230 nM
Emax [5]: 15%
EC50 [6]: 305 nM
Emax [7]: 90%
IC50 [8]: 2820 nM
